Test results published in ChEMBL document CHEMBL1122170, “Angiotensin converting enzyme inhibitors: modifications of a tripeptide analogue” (J Med Chem, 1982).

Biological target: Angiotensin-converting enzyme (Cavia porcellus)
Assay: Concentration required for 50% inhibition of Angiotensin I converting enzyme

First: O=C(NC(Cc1ccccc1)C(=O)CSCC(=O)N1CCC[C@@H]1C(=O)O)c1ccccc1 (stereo not given in full)
Second: O=C(NC(Cc1ccccc1)C(=O)CNCC(=O)N1CCC[C@@H]1C(=O)O)c1ccccc1 (stereo not given in full)
The IC50 of the first is 80-fold lower: 12 nM for the first, 960 nM for the second.

Going from `Cc1ccc(S(=O)(=O)N(CC(=O)C(Cc2ccccc2)NC(=O)c2ccccc2)CC(=O)N2CCC[C@@H]2C(=O)O)cc1` (stereo not given in full) to `O=C(NC(Cc1ccccc1)C(=O)COCC(=O)N1CCC[C@@H]1C(=O)O)c1ccccc1` (stereo not given in full), the IC50 falls from 22000 nM to 4.4 nM (5000-fold).

`O=C(NC(Cc1ccccc1)C(=O)CCCC(=O)N1CCC[C@@H]1C(=O)O)c1ccccc1` (stereo not given in full) was tested, and the IC50 was 42 nM.
